Test results taken from patent US8940766B2, “Methods for preventing and/or treating lysosomal storage disorders” (Amicus Therapeutics, Inc., priority 2009, dated 2015).

Assays:
[1] = Compound concentration in brain, spleen and plasma samples of GCase enhancement study; assay type: in vivo, mice (C57BL/6); settings: nine doses
Experimental: (§1) The ability of orally administered test compounds (the hydrochloride salt form of Compound A and Compound B) to elevate GCase levels as compared to reference compound, IFG-tartrate, was assessed in mice. […] Seven animals were used per dose. The dosing solutions were prepared in water. Compounds were administered over 2 weeks as follows: week 1, Mon-Fri (On), Sat-Sun (Off); week 2, Mon-Thu (On); necropsy on Friday. Thus, a total of 9 doses (dosing solutions prepared fresh every day) were given to each mouse, with a 24-hour washout between the last dose and necropsy.
(§2) Plasma was collected by spinning blood at 2700 g for 10 minutes at 4° C. Liver, spleen, lung, and brain tissues were removed, washed in cold PBS, blotted dry, flash frozen on dry ice, and stored at −80° C. until analysis. GCase levels were measured by homogenizing approximately 50 mg tissue in 500 μL McIlvane (MI) buffer (100 mM sodium citrate, 200 mM sodium phosphate dibasic, 0.25% sodium taurocholate, and 0.1% Triton X-100, pH 5.2) at pH 5.2 for 3-5 seconds on ice with a micro homogenizer. Homogenates were then incubated at room temperature without and with 2.5 mM conduritol-B-epoxide (CBE) for 30 min. Finally, 3.7 mM 4-methylumbeliferryl-β-glucoside (4-MUG) substrate was added and incubated at 37° C. for 60 min. Reactions were stopped by addition of 0.4 M glycine, pH 10.6. Fluorescence was measured on a plate reader for 1 sec/well using 355 nm excitation and 460 nm emission. Total protein was determined in lysates using the MicroBCA kit according to the manufacturer's instructions. A 4-methylumbelliferone (4-MU) standard curve ranging from 1.0 nM to 50 μM was run in parallel for conversion of raw fluorescence data to absolute GCase activity (in the presence and absence of CBE) and expressed as nanomoles of 4-MU released per milligram of protein per hour (nmol/mg protein/hr). GCase levels and protein levels were calculated using Microsoft Excel (Redmond, Wash.) and GraphPad Prism version 4.02.

GCase = target: T1, GCase (Mus musculus, UniProt P17439); test: GCase enhancement in tissues of orally dosed mice; assay type: in vivo, mice (C57BL/6); settings: for GCase increase: nine doses over 2 weeks, 24-hour washout
T1 construct: Liver, spleen, lung, and brain tissues were removed; from tissue; host or cells: brain, spleen, liver, lung of C57BL/6 mice
T1 sequence (P17439 20-515): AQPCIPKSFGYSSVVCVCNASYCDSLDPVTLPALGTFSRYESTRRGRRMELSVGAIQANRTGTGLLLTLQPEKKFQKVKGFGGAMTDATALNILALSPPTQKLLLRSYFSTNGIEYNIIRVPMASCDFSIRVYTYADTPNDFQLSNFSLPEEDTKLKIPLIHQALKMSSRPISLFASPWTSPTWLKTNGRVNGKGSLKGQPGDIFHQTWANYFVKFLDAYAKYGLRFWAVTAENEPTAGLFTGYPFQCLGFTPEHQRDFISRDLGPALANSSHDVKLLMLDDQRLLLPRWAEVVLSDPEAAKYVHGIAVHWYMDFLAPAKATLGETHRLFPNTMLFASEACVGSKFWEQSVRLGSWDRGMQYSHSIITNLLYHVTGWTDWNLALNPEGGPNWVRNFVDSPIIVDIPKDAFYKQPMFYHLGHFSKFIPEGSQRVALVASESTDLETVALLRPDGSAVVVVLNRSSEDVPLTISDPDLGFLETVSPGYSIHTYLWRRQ
Experimental: as §1, §2

lysosomal GCase = target: T2, lysosomal GCase (Homo sapiens, UniProt P04062); test: In situ washout assay in fibroblasts (recovery of lysosomal GCase activity after compound removal); assay type: cell-based; settings: fibroblasts treated at IC90 for 16-24 hours, then drug-free medium; single exponential fit
T2 construct: assayed in situ using fibroblasts established from a normal subject; endogenous in cells; host or cells: fibroblasts from a normal subject
T2 sequence (P04062 40-536): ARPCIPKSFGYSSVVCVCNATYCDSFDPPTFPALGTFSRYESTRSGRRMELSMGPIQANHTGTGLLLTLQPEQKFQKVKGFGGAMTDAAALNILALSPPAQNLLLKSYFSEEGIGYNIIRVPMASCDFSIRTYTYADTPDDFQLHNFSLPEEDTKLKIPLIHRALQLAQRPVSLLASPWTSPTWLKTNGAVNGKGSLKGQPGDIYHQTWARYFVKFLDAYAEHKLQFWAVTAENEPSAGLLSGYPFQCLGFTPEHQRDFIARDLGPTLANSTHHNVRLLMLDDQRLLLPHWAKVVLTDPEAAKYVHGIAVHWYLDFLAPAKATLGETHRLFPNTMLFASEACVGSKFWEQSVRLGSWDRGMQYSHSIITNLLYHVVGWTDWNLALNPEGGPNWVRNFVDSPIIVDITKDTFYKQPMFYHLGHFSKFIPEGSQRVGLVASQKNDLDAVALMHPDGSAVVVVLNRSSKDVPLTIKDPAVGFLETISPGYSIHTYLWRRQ
Experimental: Cells seeded in 48-well plates were incubated with the indicated concentrations of compound for 16-24 hours. For the dose-response assays, cells were incubated with the in situ substrate 5-(pentafluorobenzoylamino)fluorescein di-β-D-glucopyranoside (PFBFDβGlu) for 1 hour and subsequently lysed to determine the extent of substrate hydrolysis in the presence of compound. […] Inhibition was determined as the ratio of activity in the presence of compound to that in the absence of compound. […] Cells were washed extensively and incubated in drug-free medium to allow net compound efflux from cells. Cells were then tested for lysosomal GCase activity at 2 hour intervals over a total period of 8 hours following compound removal. The increase in activity over time was fitted with a single exponential function to determine the compound's washout time.

[2] = mice, nine p.o. doses over 2 weeks, result in words

Concentration in GCase assays after dilution (value in parenthesis) ([1]; brain sample, 10 mg/kg p.o.): 0.9 nM
Concentration in GCase assays after dilution (value in parenthesis) ([1]; brain sample, 100 mg/kg p.o.): 7.6 nM
Concentration in GCase assays after dilution (value in parenthesis) ([1]; spleen sample, 10 mg/kg p.o.): 2.4 nM
Concentration in GCase assays after dilution (value in parenthesis) ([1]; spleen sample, 100 mg/kg p.o.): 8 nM
GCase increase (GCase; brain, 10 mg/kg (free base equivalent) p.o.): 2.3 -fold
GCase increase (GCase; brain, 100 mg/kg (free base equivalent) p.o.): 3.5 -fold
GCase increase (GCase; spleen, 10 mg/kg (free base equivalent) p.o.): 1.4 -fold
GCase increase (GCase; spleen, 100 mg/kg (free base equivalent) p.o.): 2.2 -fold
In Situ Washout (lysosomal GCase): 2.9 ± 0.22 h
Compound: O[C@@H]1[C@@H](CCl)CNC[C@H]1O [Compound B, (3R,4R,5S)-5-(chloromethyl)piperidine-3,4-diol]
GCase enhancement at lower doses compared to IFG-tartrate (GCase; [2]): unexpectedly greater than that observed with IFG-tartrate even when far lower doses
GCase enhancement in brain, spleen, liver and lung compared to control or IFG-tartrate (GCase; [2]): statistically significant greater GCase enhancement in brain, spleen, liver and lung as compared to mice administered control or IFG-tartrate
